Source: US11357752B2, “Carolacton and derivatives thereof for use in the treatment of cell proliferation disorders” (Helmholtz-Zentrum für Infektionsforschung GmbH, priority 2017, dated 2022)
≈ marks a conversion by molar mass, not a printed value. Where “and” joins values, the source holds several entries; their conditions need not be identical. Equal values may be shown once.

Tests used:
[1] = molecular target: T1, ecFoID (Escherichia coli, UniProt P24186); assay: FoID cyclohydrolase (CYH) enzyme assay; type: biochemical, E. coli
T1 construct: His-tag (vector pHis-TEV); made in house; host or cells: E. coli BL21 (DE3)
Method: (6R,S)-5,10-Methylene-5,6,7,8-tetrahydrofolic acid ((6R,S)-5,10-CH2-THF), calcium salt and (6R,S)-5,10-Methenyl-5,6,7,8-tetrahydrofolic acid ((6R,S)-5,10-CH=THF) chloride were purchased from Schircks Laboratories (Bauma, Switzerland) and were used as substrates for FoID dehydrogenase and cyclohydrolase enzyme assays, respectively. Only the R-isomer, which accounts for 50% of (6R,S)-5,10-CH2-THF and (6R,S)-5,10-CH=THF, respectively, is used by the enzyme. (6R,S)-5,10-CH2-THF was dissolved in N2-spargeled basic buffer (50 mM Tris-HCl (pH 8.0), 100 mM β-mercaptoethanol) as described by Sah and Varshney, 2015a (6R,S)-5,10-CH=THF was first dissolved in DMSO as a 100 mM stock solution.
Because FoID is a bifunctional enzyme, dehydrogenase and cyclohydrolase activities were determined for FoID enzyme kinetics, respectively. The dehydrogenase activity of FoID was assayed for its substrate 5,10-CH2-THF and cofactor NADP+ (in the case of MTHFD2, NAD+ was used as cofactor) based on monitoring the formation of 5,10-CH=THF while the cyclohydrolase activity of FoID was determined for its substrate 5,10-CH=THF by monitoring the hydrolysis of 5,10-CH2-THF. The enzyme kinetics for the dehydrogenase activity of all FoIDs except hsMTHFD1_DC were determined at 30° C. in 50 mM Tris-HCl (pH 7.5), 30 mM β-mercaptoethanol. […]

[2] = molecular target: T2, spFoID (Streptococcus pneumoniae serotype 4, UniProt Q97RI9); assay: Surface plasmon resonance assay; type: binding, S. pneumoniae; settings: read-out: KD (SPR)
T2 construct: made in house; host or cells: E. coli BL21 (DE3)
T2 sequence (Q97RI9 whole entry): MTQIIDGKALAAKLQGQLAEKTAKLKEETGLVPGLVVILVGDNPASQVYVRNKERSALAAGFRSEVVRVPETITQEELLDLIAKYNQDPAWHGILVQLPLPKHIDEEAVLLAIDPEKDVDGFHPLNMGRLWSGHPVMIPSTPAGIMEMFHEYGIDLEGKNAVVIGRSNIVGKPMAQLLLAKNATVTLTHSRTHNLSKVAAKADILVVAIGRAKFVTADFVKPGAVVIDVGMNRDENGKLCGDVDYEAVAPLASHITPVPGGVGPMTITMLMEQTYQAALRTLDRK
Method: All surface plasmon resonance (SPR) experiments described in this study were performed on a Biacore X100 system. Different FoIDs with or without His-tag were coupled on CM5 sensor chips (GE Healthcare) by the amine coupling method using a kit from GE Healthcare Life Sciences (Freiburg, Germany). A pH scouting process was performed before protein immobilization to test the most appropriate buffer and the protein concentration for protein coupling. Finally, 20 μg/mL of ecFoID in 10 mM maleate buffer (pH 6.8), 30 μg/mL of ecFoID Q98H in 10 mM maleate buffer (pH 6.3), 40 μg/mL of ecFoID K54N in 10 mM maleate buffer (pH 5.8), 20 μg/mL of spFoID in 10 mM maleate buffer (pH 6.0) and 15 μg/mL of MTHFD2 (His-tag cleaved) in 10 mM maleate buffer (pH 6.8) were used for coupling. In the protein immobilization procedure, the contact time was calculated based on the pH scouting results to achieve -3000-5000 relative resonance units (RU). The buffer used in the SPR assays was 1×HBS-P buffer (10 mM HEPES pH 7.4, 150 mM NaCl, 0.05% Tween 20). The 1 mM stock solution of carolacton was prepared in 1×HBS-P buffer and diluted to different concentration ranges by two-fold serial dilution. In the SPR assay, the association time was 180 s and the dissociation time was 600 s. Data analysis was performed using the Biacore evaluation software. […]

[3] = test system: L-929 mouse fibroblasts; assay: Cell proliferation assay with mouse fibroblasts (MTT); type: cell-based
Method: L-929 mouse fibroblasts from DSMZ cultivated at 37° C. and 10% CO2 in DME medium (high glucose) supplemented with 10% fetal calf serum. Cell culture reagents came from Life Technologies Inc. (GIBCO BRL). […] of serial dilutions of the test compound were given to […] of suspended cells (50,000/mL) in wells of 96-well plates. After 5 days of incubation growth inhibition (IC50) was determined using an MTT assay (Mosman et al., 1983).

CO[C@H](CC(=O)O)[C@@H](C)C(=O)[C@H](C)/C=C(\C)[C@H]1OC(=O)[C@H](O)[C@H](O)/C=C/[C@H](C)CCC[C@@H]1C [Carolacton, carolacton]
IC50 [1]: 49.8 nM | Ki ([1]; Ki (5,10-CH═THF), carolacton inhibition on CYH activity, ecFoID, vs 5,10-CH=THF): 32 nM and 31.6 nM | Kd [2]: 27 nM | inhibition of growth of L929 cells reached ([3]; L929 cells cultivated for 5 days): ≤ 50% | IC50 ([3]; Mus musculus, L929, 120 h, read-out: adapted IC50, inhibition of mouse fibroblast proliferation): 3.5 µg/mL (≈ 7.47 µM)
